Test results: publication PMC5523311, “Synergistic Uric Acid-Lowering Effects of the Combination of Chrysanthemum indicum Linne Flower and Cinnamomum cassia (L.) J. Persl Bark Extracts” (Evidence-based Complementary and Alternative Medicine : eCAM, 2017)
Converted amounts (≈) assume the structure as drawn.

Key:
[1] = molecular target: T1, xanthine oxidase from bovine milk (Bos taurus, UniProt P80457); assay: In vitro XOD inhibition assay (uric acid formation at 295 nm); type: biochemical; settings: for IC50 XOD activity / IC50: mean of three experiments
T1 construct: xanthine oxidase from bovine milk (0.09 units/mg solid); purchased Sigma-Aldrich (St. Louis, MO, USA); host or cells: bovine milk

[2] = system: PO-induced hyperuricemic rats; assay: Urine uric acid, FEUA and creatinine in PO-induced hyperuricemic rats; type: in vivo, rat; settings: 10 mg/kg oral
Description: (§1) For hyperuricemia induction, the uricase inhibitor potassium oxonate (PO) was administered as previously described, with slight modifications. For the experiment regarding the effects of CF, CB, and various CC mixtures, the rats were divided into the following 10 groups (n = 8/group) based on body weight: (1) a normal control group (NC), (2) a hyperuricemia control group (PO), (3) a PO + CF group, (4) a PO + CB group, (5) a PO + CC11 group, (6) a PO + CC12 group, (7) a PO + CC14 group, (8) a PO + CC21 group, (9) a PO + CC41 group, and (10) a PO + AP group. […]
(§2) Urine samples were collected during 2 h after the final administration experiment and centrifuged (3000g, 10 min, 4°C) to remove particulate contaminants, and the supernatants were stored at −80°C until analysis. […] Serum and urine uric acid (SUA and UUA, resp.) levels were determined by an enzymatic-colorimetric method using commercial assay kits (Biovision, USA) according to manufacturer's protocols. Serum and urine creatinine levels were analyzed by an autoanalyzer (Hitachi-7020, Hitachi Medical, Japan). Fractional excretion of uric acid (FEUA) was calculated by the formula FEUA (%) = (urine uric acid levels [mg/dl] × Serum Creatinine levels [mg/dl])/(serum uric acid levels [mg/dl] × urine creatinine levels [mg/dl]) × 100.

[3] = system: PO-induced hyperuricemic rats; assay: Serum uric acid levels in PO-induced hyperuricemic rats; type: in vivo, rat; settings: 10 mg/kg oral
Description: as §1, §2

normal rats = assay: Serum uric acid levels in normal rats; type: in vivo, rat; settings: 10 mg/kg oral, Figure 1(b)
Description: The rats were randomized into the following 9 groups (n = 8/group) based on body weight: (1) a normal control group (NC), (2) a CF group, (3) a CB group, (4) a CC11 group, (5) a CC12 group, (6) a CC14 group, (7) a CC21 group, (8) a CC41 group, and (9) an AP group. The rats of NC group were treated with vehicle (0.5% CMC solution). CF, CB, and various CC mixtures in 0.5% CMC solution were given to the rats via oral gavage at a dose of 200 mg/kg. Allopurinol in 0.5% CMC solution was administered at a dose of 10 mg/kg.
as §2, with “analysis. Blood samples were collected via cardiac puncture under anesthesia 2 h after urine collection following PO injection.” for “analysis.”

[4] = system: PO-induced hyperuricemic mice; set-up: method as in Wang et al. [23] and Meng et al. [32]; settings: ref Wang et al. [23] and Meng et al. [32]; cited from earlier work
[5] = read-out: % inhibition of XOD activity

T1 sequence (P80457 whole entry): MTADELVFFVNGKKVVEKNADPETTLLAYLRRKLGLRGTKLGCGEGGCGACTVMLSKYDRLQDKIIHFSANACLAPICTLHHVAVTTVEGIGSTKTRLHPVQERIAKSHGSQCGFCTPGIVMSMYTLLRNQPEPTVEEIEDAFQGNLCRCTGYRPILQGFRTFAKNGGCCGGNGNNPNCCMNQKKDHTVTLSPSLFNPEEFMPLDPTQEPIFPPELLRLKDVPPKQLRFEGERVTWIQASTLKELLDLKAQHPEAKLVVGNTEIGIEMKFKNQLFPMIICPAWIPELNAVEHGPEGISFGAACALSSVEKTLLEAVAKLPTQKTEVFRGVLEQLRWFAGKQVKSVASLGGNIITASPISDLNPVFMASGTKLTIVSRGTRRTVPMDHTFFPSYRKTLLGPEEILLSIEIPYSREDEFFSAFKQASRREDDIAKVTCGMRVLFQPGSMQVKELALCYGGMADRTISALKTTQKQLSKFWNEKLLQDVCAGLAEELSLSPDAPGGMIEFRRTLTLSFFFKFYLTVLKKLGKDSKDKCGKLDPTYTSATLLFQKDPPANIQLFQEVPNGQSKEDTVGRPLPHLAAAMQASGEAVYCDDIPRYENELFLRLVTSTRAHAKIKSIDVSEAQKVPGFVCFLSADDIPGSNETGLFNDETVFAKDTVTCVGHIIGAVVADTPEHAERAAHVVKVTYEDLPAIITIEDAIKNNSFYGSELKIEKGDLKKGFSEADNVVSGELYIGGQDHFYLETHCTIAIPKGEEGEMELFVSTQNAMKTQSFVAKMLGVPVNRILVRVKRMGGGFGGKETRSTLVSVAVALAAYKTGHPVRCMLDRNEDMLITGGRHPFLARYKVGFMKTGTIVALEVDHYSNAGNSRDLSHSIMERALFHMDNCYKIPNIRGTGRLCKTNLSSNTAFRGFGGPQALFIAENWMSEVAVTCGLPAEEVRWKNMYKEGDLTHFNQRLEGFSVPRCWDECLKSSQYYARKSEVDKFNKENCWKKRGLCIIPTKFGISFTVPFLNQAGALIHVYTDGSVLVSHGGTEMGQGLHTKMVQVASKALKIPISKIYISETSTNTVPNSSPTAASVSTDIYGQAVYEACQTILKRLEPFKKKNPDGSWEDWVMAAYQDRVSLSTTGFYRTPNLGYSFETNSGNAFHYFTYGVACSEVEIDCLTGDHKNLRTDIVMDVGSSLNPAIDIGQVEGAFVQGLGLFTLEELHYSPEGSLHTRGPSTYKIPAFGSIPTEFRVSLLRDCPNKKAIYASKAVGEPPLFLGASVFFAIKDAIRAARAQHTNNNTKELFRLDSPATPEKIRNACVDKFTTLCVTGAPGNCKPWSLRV

Row | Structure (SMILES) | % inhibition of XOD activity ([1]; 62.5 μg/ml) | % inhibition of XOD activity ([1]; 125 μg/ml) | % inhibition of XOD activity ([1]; 250 μg/ml) | IC50 XOD activity [1] | inhibition at 62.5 µg/mL ([1]; 62.5 μg/ml) | inhibition at 125 µg/mL ([1]; 125 μg/ml) | inhibition at 250 µg/mL ([1]; 250 μg/ml) | IC50 [1] | further results
1 | O=C(/C=C/c1ccc(O)c(O)c1)O[C@@H]1[C@H](O)C[C@@](O)(C(=O)O)C[C@H]1OC(=O)/C=C/c1ccc(O)c(O)c1 (stereo in doubt) [3,4-Dicaffeoylquinic acid, 3,4-dicaffeoylquinic acid] | 21.0 ± 1.5% | 104.6 ± 2.6% | 85.0 ± 1.2% | 79.7 µg/mL (≈ 154 µM) |  |  |  |  | 
2 | Oc1ncnc2[nH]ncc12 [Allopurinol, allopurinol] |  |  |  |  |  |  |  |  | Effect on urine uric acid levels ([2]; Figure 2(b)): did not affect; Effect on FEUA ([2]; Figure 2(c), p < 0.05): increased the FEUA; Reduction of serum uric acid levels compared with the PO group ([3]; PO-induced hyperuricemic rats, Figure 1(a)): 75%; Reduction of serum uric acid levels ([3]; dose-dependence experiment, Figure 2(a)): 66%; Decrease of serum uric acid levels compared with the NC group (normal rats): 70%; inhibition at 6.25 µg/mL [1, 5]: 51.7 ± 0.7%; inhibition at 12.5 µg/mL [1, 5]: 71.7 ± 0.1%; inhibition at 25 µg/mL [1, 5]: 80.3 ± 0.3%
3 | O=C/C=C/c1ccccc1 [Cinnamaldehyde, cinnamaldehyde] |  |  |  |  | 101 ± 3.2% | 126 ± 5.6% | 119 ± 35.1% | 331 µM | Effect on serum uric acid levels by inhibiting XOD activity [4]: significantly decreased
4 | O=C(O)/C=C/c1ccccc1 [trans-Cinnamic acid, trans-cinnamic acid] | 54.3 ± 0.7% | 96.7 ± 1.9% | 114.9 ± 0.4% | 58.8 µg/mL (≈ 397 µM) |  |  |  |  | 

More lines, main results first:

Row | % inhibition of XOD activity ([1]; 62.5 μg/ml) | % inhibition of XOD activity ([1]; 125 μg/ml) | % inhibition of XOD activity ([1]; 250 μg/ml) | IC50 XOD activity [1] | inhibition at 62.5 µg/mL ([1]; 62.5 μg/ml) | inhibition at 125 µg/mL ([1]; 125 μg/ml) | inhibition at 250 µg/mL ([1]; 250 μg/ml) | IC50 [1] | Structure (SMILES) | further results
5 |  |  |  |  | 24 ± 1.7% | 63.6 ± 1.5% | 107.3 ± 0.6% | 293 µM | O=C(/C=C/c1ccc(O)c(O)c1)O[C@@H]1C[C@](O)(C(=O)O)C[C@@H](O)[C@H]1O [Chlorogenic acid] | Effect on serum uric acid levels by inhibiting XOD activity [4]: significantly decreased
6 |  |  |  |  | 22.8 ± 0.1% | 75.1 ± 1% | 103.9 ± 0.7% | 651 µM | O=c1ccc2ccccc2o1 [Coumarin, coumarin] | 
7 | 104.7 ± 0.2% | 101.2 ± 0.2% | 100.0 ± 0.4% | 25.7 µg/mL (≈ 158 µM) |  |  |  |  | COc1ccccc1C=CC=O [o-Methoxycinnamaldehyde, o-methoxycinnamaldehyde] | 
